Assay results reported in patent US8987471B2, “Substituted dihydropyrazoles as sphingosine receptor modulators” (Allergan, Inc., priority 2013, dated 2015).

Target: T1, human S1P1 receptor (Homo sapiens, UniProt P21453)
T1 construct: expressed in transfected cells; membranes used
Assay: GTP γ35S binding assay for S1P1 activity
Format: biochemical
Conditions: membranes of cells stably expressing the S1P1 receptor, test concentrations 0.08 to 5,000 nM
Protocol: Compounds of the invention were tested for S1P1 activity using the GTP γ^35S binding assay. These compounds may be assessed for their ability to activate or block activation of the human S1P1 receptor in cells stably expressing the S1P1 receptor.
GTP γ^355 binding was measured in the medium containing (mM) HEPES 25, pH 7.4, MgCl2 10, NaCl 100, dithiothreitol 0.5, digitonin 0.003%, 0.2 nM GTP γ^355, and 5 μg membrane protein in a volume of 150 μl. Test compounds were included in the concentration range from 0.08 to 5,000 nM unless indicated otherwise. Membranes were incubated with 100 μM 5′adenylylimidodiphosphate for 30 min, and subsequently with 10 μM GDP for 10 min on ice. Drug solutions and membrane were mixed, and then reactions were initiated by adding GTP γ^355 and continued for 30 min at 25° C. Reaction mixtures were filtered over Whatman GF/B filters under vacuum, and washed three times with 3 mL of ice-cold buffer (HEPES 25, pH 7.4, MgCl2 10 and NaCl 100). Filters were dried and mixed with scintillant, and counted for ^35S activity using a β-counter. Agonist-induced GTP γ^35S binding was obtained by subtracting that in the absence of agonist. Binding data were analyzed using a non-linear regression method. In case of antagonist assay, the reaction mixture contained 10 nM S1P in the presence of test antagonist at concentrations ranging from 0.08 to 5000 nM.

T1 sequence (P21453 whole entry): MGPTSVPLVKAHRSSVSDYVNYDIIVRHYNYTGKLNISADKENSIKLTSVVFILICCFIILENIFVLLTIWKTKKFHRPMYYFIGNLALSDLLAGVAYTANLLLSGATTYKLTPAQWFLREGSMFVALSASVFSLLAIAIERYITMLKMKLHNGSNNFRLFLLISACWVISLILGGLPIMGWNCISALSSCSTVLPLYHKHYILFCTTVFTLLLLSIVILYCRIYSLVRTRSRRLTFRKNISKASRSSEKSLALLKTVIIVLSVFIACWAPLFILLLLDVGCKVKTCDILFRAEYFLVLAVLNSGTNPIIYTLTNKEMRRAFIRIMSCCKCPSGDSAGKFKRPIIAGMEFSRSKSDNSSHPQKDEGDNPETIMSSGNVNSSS

EC50: 57 nM
Structure (SMILES): CCCN1N=C(COc2ccc(CNCCCP(=O)(O)O)cc2C)CC1c1ccccc1 (stereo not shown) [Compound 1, [3-({3-Methyl-4-[(5-phenyl-1-propyl-4,5-dihydro-1H-pyrazol-3-yl)methoxy]benzyl}amino)propyl]phosphonic acid]
